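Dose response: 5 concentrations. Exposure: 48 h. Format: 96-well plates. Endpoint: linear interpolation; highest concentration if not reached. Here, GI50 denotes the concentration required for 50% inhibition of growth.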 The source made the active and inactive calls. Rule as the data show it: active = GI50 up to about 1.1 µM and inactive = higher.
How the values were obtained:
Experiment in all cases: inhibition of tumour cell growth, NCI panel, 48 h
786-0 = test system: 786-0
A498 = test system: A498
EKVX = test system: EKVX
HCT-116 = test system: HCT-116
IGROV-1 = test system: IGROV-1
NCI-H522 = test system: NCI-H522
OVCAR-4 = test system: OVCAR-4
OVCAR-8 = test system: OVCAR-8
SF-539 = test system: SF-539
SK-MEL-2 = test system: SK-MEL-2
SN12C = test system: SN12C
SW-620 = test system: SW-620
TK-10 = test system: TK-10
UACC-62 = test system: UACC-62
UO-31 = test system: UO-31
SNB-19 = test system: SNB-19

Measured: GI50

Cc1ccc(C(=O)O/N=C2/CCC/C2=C\c2ccccc2)cc1
inactive: 786-0 > 100 µM | A498 > 100 µM | EKVX > 100 µM | HCT-116 > 100 µM | IGROV-1 > 100 µM | NCI-H522 > 100 µM | OVCAR-4 > 100 µM | OVCAR-8 > 100 µM | SF-539 > 100 µM | SK-MEL-2 > 100 µM | SN12C > 100 µM | SW-620 > 100 µM | TK-10 > 100 µM | UACC-62 > 100 µM | UO-31 > 100 µM

COc1ccc(/C=C/C(=O)c2sc(Nc3ccc([N+](=O)[O-])cc3)nc2C)cc1
inactive: 786-0 48.8 µM | A498 83.8 µM | EKVX 43.9 µM | IGROV-1 66.5 µM | NCI-H522 18.2 µM | OVCAR-8 39.1 µM | SF-539 59.7 µM | SK-MEL-2 17.5 µM | SN12C 50.2 µM | SNB-19 35.3 µM | SW-620 42.3 µM | TK-10 45.2 µM | UACC-62 29.9 µM | UO-31 25.4 µM

Cn1c(CBr)nc2c1C(=O)c1nc(CBr)[nH]c(=O)c1C2=O
inactive: 786-0 > 100 µM | A498 > 100 µM | EKVX > 100 µM | HCT-116 > 100 µM | IGROV-1 > 100 µM | NCI-H522 > 100 µM | OVCAR-8 > 100 µM | SF-539 > 100 µM | SN12C > 100 µM | SW-620 > 100 µM | TK-10 > 100 µM | UACC-62 > 100 µM | UO-31 > 100 µM

CC(c1ccc(Br)cc1)C(C(=O)O)C(=O)O (stereo not given)
inactive: 786-0 > 100 µM | EKVX > 100 µM | HCT-116 > 100 µM | IGROV-1 > 100 µM | NCI-H522 > 100 µM | OVCAR-4 > 100 µM | OVCAR-8 > 100 µM | SK-MEL-2 > 100 µM | SN12C > 100 µM | SNB-19 > 100 µM | SW-620 > 100 µM | TK-10 > 100 µM | UACC-62 > 100 µM | UO-31 > 100 µM

C#CCN(N=O)C(=O)NCCCC(NC(C)=O)C(=O)NCc1ccccc1 (stereo not given)
inactive: 786-0 > 100 µM | A498 > 100 µM | EKVX > 100 µM | HCT-116 73.6 µM | IGROV-1 > 100 µM | NCI-H522 29.9 µM | OVCAR-4 > 100 µM | OVCAR-8 > 100 µM | SF-539 96.2 µM | SN12C > 100 µM | SNB-19 > 100 µM | SW-620 92.5 µM | TK-10 > 100 µM | UACC-62 81.7 µM | UO-31 > 100 µM

CN1/C(=C/C(=O)c2ccc(Cl)cc2)Nc2ccccc21
inactive: 786-0 65.6 µM | EKVX 23.1 µM | HCT-116 45.7 µM | IGROV-1 38.6 µM | NCI-H522 19.1 µM | OVCAR-4 77.6 µM | OVCAR-8 83.9 µM | SF-539 58.7 µM | SK-MEL-2 > 100 µM | SN12C 60.4 µM | SNB-19 41.6 µM | SW-620 55.5 µM | UACC-62 44.3 µM | UO-31 13.2 µM

N#C/C(=C1\SC(/N=N/c2ccc(Cl)cc2)C(=O)N1c1ccccc1)c1nc2ccccc2[nH]1 (stereo not given)
inactive: 786-0 13.7 µM | A498 29.7 µM | EKVX 47.3 µM | HCT-116 46 µM | NCI-H522 23.8 µM | OVCAR-4 23 µM | OVCAR-8 54.2 µM | SF-539 32.4 µM | SK-MEL-2 18.2 µM | SN12C 96.8 µM | SNB-19 30.1 µM | SW-620 98.6 µM | TK-10 24.9 µM | UACC-62 31.4 µM | UO-31 19.8 µM

O=S(=O)(O)c1ccc(/N=N/c2nc(C(F)(F)F)c(C(F)(F)F)[nH]2)cc1
inactive: 786-0 > 100 µM | EKVX 43.5 µM | HCT-116 37.7 µM | IGROV-1 > 100 µM | OVCAR-4 21.6 µM | OVCAR-8 29.4 µM | SF-539 29.6 µM | SK-MEL-2 30.3 µM | SN12C 66.5 µM | SNB-19 29.9 µM | SW-620 41.5 µM | TK-10 > 100 µM | UACC-62 28.4 µM | UO-31 34 µM

Cc1ccc(S(=O)(=O)NC(=O)C2S(=O)(=O)OCCOS2(=O)=O)cc1
inactive: 786-0 > 100 µM | EKVX > 100 µM | HCT-116 > 100 µM | NCI-H522 > 100 µM | OVCAR-4 > 100 µM | OVCAR-8 > 100 µM | SF-539 > 100 µM | SK-MEL-2 > 100 µM | SN12C > 100 µM | SNB-19 > 100 µM | SW-620 > 100 µM | TK-10 > 100 µM | UACC-62 > 100 µM | UO-31 40.8 µM

COc1cc2c(cc1C1=NC(C)(C)CO1)OCO2
inactive: 786-0 > 100 µM | EKVX > 100 µM | HCT-116 > 100 µM | IGROV-1 > 100 µM | NCI-H522 > 100 µM | OVCAR-4 > 100 µM | OVCAR-8 > 100 µM | SF-539 > 100 µM | SK-MEL-2 > 100 µM | SN12C > 100 µM | SNB-19 > 100 µM | SW-620 > 100 µM | TK-10 > 100 µM | UACC-62 > 100 µM | UO-31 > 100 µM

CC(C)=CC(=O)c1c(C(=O)O)nc2ccccc2[n+]1[O-]
inactive: 786-0 > 100 µM | A498 > 100 µM | EKVX > 100 µM | HCT-116 > 100 µM | IGROV-1 > 100 µM | OVCAR-4 > 100 µM | SF-539 > 100 µM | SK-MEL-2 > 100 µM | SN12C > 100 µM | SNB-19 > 100 µM | SW-620 > 100 µM | TK-10 > 100 µM | UACC-62 > 100 µM | UO-31 > 100 µM

CN1S(=O)(=O)N(C)P12(N=P(CP(=NP13(N(C)S(=O)(=O)N1C)N(C)S(=O)(=O)N3C)(c1ccccc1)c1ccccc1)(c1ccccc1)c1ccccc1)N(C)S(=O)(=O)N2C
inactive: 786-0 > 100 µM | A498 > 100 µM | EKVX > 100 µM | HCT-116 > 100 µM | IGROV-1 > 100 µM | NCI-H522 > 100 µM | OVCAR-8 > 100 µM | SF-539 > 100 µM | SK-MEL-2 > 100 µM | SN12C > 100 µM | SNB-19 > 100 µM | SW-620 > 100 µM | TK-10 > 100 µM | UACC-62 > 100 µM | UO-31 > 100 µM

C=CC[P@@]1(=O)O[C@H](c2ccccc2)C(C)N1C(C)C (stereo not given in full)
inactive: 786-0 > 100 µM | A498 > 100 µM | EKVX > 100 µM | IGROV-1 > 100 µM | OVCAR-4 > 100 µM | OVCAR-8 > 100 µM | SF-539 > 100 µM | SN12C > 100 µM | SNB-19 > 100 µM | SW-620 > 100 µM | TK-10 > 100 µM | UACC-62 > 100 µM | UO-31 > 100 µM

COc1cc(/C=C/c2ccc(OC(C)=O)cc2)cc(OC)c1OC
inactive: 786-0 25.4 µM | A498 23.6 µM | EKVX 26.3 µM | HCT-116 26.9 µM | IGROV-1 32.4 µM | NCI-H522 17.9 µM | OVCAR-4 22.8 µM | OVCAR-8 31.2 µM | SF-539 18.6 µM | SN12C 42 µM | SNB-19 34 µM | SW-620 43.5 µM | TK-10 31.9 µM | UACC-62 15.4 µM | UO-31 21.1 µM
